Test [1] addresses Thermolysin (Bacillus thermoproteolyticus) (UniProt P00800). Put plainly: Inhibition of Bacillus thermoproteolyticus thermolysin pretreated with compound for 15 mins followed by the addition of Abz-Ala-Gly-leu-Ala-p-nitrobenzalamide as substrate by spectrofluorometry.
Test [2] addresses Disintegrin and metalloproteinase domain-containing protein 17 (Homo sapiens, UniProt P78536). Put plainly: Inhibition of recombinant human ADAM17 after 30 mins using FS-6 as substrate by fluorometry.
The target in test [3] is T1, Thermolysin (Bacillus thermoproteolyticus, UniProt P00800).
T1 sequence (P00800 whole entry): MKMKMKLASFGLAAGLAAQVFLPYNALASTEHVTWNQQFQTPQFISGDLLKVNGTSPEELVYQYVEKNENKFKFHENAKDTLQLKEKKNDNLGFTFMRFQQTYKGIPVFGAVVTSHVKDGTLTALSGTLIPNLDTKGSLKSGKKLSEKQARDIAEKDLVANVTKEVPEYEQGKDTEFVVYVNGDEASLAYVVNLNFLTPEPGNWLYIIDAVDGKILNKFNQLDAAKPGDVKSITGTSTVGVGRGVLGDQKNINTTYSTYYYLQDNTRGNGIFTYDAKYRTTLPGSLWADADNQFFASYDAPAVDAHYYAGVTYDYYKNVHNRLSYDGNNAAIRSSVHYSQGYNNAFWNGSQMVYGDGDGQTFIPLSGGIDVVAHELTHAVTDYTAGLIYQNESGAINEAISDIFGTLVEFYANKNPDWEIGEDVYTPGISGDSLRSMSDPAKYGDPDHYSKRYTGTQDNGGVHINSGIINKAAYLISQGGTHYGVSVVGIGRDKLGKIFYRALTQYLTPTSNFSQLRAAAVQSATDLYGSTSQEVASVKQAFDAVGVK
Put plainly: Inhibition of Bacillus thermoproteolyticus thermolysin pretreated with compound for 1 hr followed by the addition of 3.33 uM bradykinin like substrate by spectrofluorometry assay.

The target in the next test is Elastase (Pseudomonas aeruginosa (strain ATCC 15692 / PAO1 / 1C / PRS 101 / LMG12228), UniProt P14756). Put plainly: Inhibition of Pseudomonas aeruginosa pseudolysin pretreated with compound for 1 hr followed by the addition of 1.73 uM bradykinin like substrate by spectrofluorometry.
Test [4] has as its target 72 kDa type IV collagenase (Homo sapiens, UniProt P08253). Briefly: Inhibition of recombinant human MMP2 after 2 hrs using FS-6 as substrate by fluorometry.
In test [5] the target is Matrix metalloproteinase-9 (Homo sapiens, UniProt P14780). Briefly: Inhibition of recombinant human MMP9 after 2 hrs using FS-6 as substrate by fluorometry.
Test [6] deals with T1, Thermolysin. Briefly: Inhibition of Bacillus thermoproteolyticus thermolysin pretreated with compound for 15 mins followed by the addition of 75 uM Abz-Ala-Gly-leu-Ala-p-nitrobenzalamide as substrate by spectrofluorometry.

The structures appear in SMILES notation.

Chain of 72 kDa type IV collagenase (P08253 whole entry): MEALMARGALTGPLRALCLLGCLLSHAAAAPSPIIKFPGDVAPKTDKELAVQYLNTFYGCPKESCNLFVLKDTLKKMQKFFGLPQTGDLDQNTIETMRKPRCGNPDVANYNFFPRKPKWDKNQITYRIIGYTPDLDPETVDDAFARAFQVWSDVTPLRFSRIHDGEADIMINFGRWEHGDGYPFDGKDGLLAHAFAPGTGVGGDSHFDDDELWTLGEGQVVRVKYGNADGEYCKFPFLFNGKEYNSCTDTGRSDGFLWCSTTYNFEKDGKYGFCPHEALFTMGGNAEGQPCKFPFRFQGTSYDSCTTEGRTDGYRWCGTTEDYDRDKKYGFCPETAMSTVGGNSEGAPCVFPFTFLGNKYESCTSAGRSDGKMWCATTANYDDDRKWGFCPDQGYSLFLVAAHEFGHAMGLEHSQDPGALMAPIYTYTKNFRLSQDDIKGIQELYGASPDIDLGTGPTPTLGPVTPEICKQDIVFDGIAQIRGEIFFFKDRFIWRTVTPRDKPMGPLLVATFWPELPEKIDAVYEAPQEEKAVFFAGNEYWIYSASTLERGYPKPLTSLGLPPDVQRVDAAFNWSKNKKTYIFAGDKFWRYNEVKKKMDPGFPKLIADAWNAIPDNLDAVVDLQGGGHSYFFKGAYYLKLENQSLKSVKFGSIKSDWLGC
Chain of Matrix metalloproteinase-9 (P14780 whole entry): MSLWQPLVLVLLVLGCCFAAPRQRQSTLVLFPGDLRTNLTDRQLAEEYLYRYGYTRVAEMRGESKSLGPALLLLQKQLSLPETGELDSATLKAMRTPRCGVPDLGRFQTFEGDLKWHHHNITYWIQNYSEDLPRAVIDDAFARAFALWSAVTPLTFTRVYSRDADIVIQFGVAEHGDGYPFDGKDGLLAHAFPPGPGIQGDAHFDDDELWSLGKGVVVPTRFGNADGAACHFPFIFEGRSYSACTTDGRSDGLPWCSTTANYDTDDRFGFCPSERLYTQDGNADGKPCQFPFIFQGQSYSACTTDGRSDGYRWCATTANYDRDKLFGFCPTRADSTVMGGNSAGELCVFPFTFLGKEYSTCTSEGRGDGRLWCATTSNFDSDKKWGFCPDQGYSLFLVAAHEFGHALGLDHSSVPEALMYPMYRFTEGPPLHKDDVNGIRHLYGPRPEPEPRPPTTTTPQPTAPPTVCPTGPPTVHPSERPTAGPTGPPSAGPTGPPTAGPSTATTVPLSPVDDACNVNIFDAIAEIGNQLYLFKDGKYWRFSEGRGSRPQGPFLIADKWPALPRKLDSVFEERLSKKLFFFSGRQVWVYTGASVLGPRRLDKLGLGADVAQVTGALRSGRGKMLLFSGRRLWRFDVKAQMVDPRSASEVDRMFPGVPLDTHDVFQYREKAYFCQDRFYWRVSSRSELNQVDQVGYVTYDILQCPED
Chain of Elastase (P14756 whole entry): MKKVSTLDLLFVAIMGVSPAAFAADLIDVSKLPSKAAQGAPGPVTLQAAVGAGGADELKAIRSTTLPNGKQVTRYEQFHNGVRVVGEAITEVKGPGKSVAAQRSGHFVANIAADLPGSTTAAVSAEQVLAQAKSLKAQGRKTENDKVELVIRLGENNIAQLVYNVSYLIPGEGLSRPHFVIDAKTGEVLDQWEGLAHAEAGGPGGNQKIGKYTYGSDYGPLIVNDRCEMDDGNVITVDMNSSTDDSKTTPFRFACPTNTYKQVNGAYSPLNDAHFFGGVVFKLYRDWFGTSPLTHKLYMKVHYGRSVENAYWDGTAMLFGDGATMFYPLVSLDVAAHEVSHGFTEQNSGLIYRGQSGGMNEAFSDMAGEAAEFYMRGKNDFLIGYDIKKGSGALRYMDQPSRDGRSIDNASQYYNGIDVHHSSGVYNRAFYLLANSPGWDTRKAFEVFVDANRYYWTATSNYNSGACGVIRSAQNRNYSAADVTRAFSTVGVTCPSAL
Chain of Disintegrin and metalloproteinase domain-containing protein 17 (P78536 whole entry, the tested form may be a part): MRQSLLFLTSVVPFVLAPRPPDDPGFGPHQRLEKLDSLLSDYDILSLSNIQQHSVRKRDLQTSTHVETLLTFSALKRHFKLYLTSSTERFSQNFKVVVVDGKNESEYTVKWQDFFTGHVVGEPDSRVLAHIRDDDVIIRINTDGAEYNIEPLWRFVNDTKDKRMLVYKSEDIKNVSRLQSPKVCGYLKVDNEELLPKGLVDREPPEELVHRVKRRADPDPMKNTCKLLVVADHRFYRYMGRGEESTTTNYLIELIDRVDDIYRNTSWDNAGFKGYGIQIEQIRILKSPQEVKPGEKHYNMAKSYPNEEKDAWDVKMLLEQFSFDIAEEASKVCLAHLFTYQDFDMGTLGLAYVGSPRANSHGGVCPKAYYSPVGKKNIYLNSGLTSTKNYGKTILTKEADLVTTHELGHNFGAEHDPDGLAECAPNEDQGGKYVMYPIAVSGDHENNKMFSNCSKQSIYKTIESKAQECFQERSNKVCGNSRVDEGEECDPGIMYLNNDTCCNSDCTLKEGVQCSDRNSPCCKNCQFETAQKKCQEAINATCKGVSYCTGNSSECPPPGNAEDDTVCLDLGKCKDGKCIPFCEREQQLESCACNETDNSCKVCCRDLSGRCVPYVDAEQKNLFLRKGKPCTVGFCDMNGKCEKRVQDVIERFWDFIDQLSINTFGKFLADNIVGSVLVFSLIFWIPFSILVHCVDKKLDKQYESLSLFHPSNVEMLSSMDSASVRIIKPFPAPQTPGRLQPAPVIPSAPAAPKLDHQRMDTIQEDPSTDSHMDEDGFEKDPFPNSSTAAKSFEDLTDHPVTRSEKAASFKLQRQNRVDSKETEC

For the compound `COc1ccc(S(=O)(=O)N(CC(C)C)[C@@H](C(=O)NO)C(C)C)cc1`, the IC50 in test [1] came out at 103 µM.
As for `CC(C)ON([C@@H](C(=O)NO)C(C)C)S(=O)(=O)c1ccc(-c2ccccc2)cc1`, the IC50 in test [2] stood at 14 µM.
As for `CCCCC(NOCc1ccccc1)C(=O)NO` (configuration not stated), the IC50 was found to be 100 µM in test [2], 9.5 µM on Thermolysin [3], 1.1 µM in test [1] and 1.9 µM on Elastase.
With `O=C(Cc1ccccc1S(=O)(=O)c1ccc(OCCCN2C(=O)c3ccccc3C2=O)cc1)NO`, the IC50 in test [2] was 150 µM; in test [4], > 10 µM; in test [5] it was > 10 µM; at Thermolysin [3], 132 µM; in test [1], 7 µM; at Elastase, 38 µM.
As to `O=C(N[C@H](CCN1C(=O)c2ccccc2C1=O)C(=O)NO)c1ccc(Oc2ccccc2)cc1`, the IC50 in test [2] was found to be 9.5 µM; in test [4], 9 µM; in test [5], 8.2 µM; in test [1], 16 µM.
For the compound `COc1ccc(S(=O)(=O)N(CC(=O)NO)OC23CC4CC(CC(C4)C2)C3)cc1`, the IC50 in test [4] and in test [5] was 2 µM in each case.
For `O=C(CCNS(=O)(=O)c1ccc(-c2ccccc2)cc1)NO`, the IC50 in test [4] was 2.4 µM; in test [5] it was 26 µM; on Thermolysin [3] it was 30 µM; at Thermolysin [6] it was 30 µM; in test [1] it was 30 µM; on Elastase it was 79 µM.
Take `CC(C)CN([C@@H](C(=O)NO)C(C)C)S(=O)(=O)c1ccc(-c2ccccc2)cc1`: the IC50 in test [4] came to 0.003 µM; in test [5], 0.0053 µM.
For `CC(C)ON(CC(=O)NO)S(=O)(=O)c1ccc(Br)s1`, the IC50 in test [2] was found to be 114 µM; in test [4], 1.1 µM; in test [5] it was 6.2 µM; on Thermolysin [3], 29 µM; at Thermolysin [6] it was 29 µM; in test [1] it was 3.3 µM. Further, at Elastase, the IC50 stood at 31 µM.
Consider `COc1ccc(S(=O)(=O)c2ccccc2CC(=O)NO)cc1`, for which the IC50 is 67 µM in test [2], 146 µM on Thermolysin [3], 17 µM in test [1] and 29 µM at Elastase.

Broadly, the IC50 is the point on the concentration scale where inhibition reaches its midpoint.
